Test results published in US9199975B2, “Biaryl imidazole derivatives for regulating CYP17” (Asana Biosciences, LLC, priority 2011, dated 2015).

What follows are molecules tested against T1, rat CYP17 (Rattus norvegicus, UniProt P11715) (assay: CYP17 inhibition assay in rat testicular microsomes). Details: 3H3-17α-hydroxypregnenolone substrate, 60 minutes at 37° C.
T1 construct: Rat testis tissue was collected and disrupted with 30 strokes of a glass homogenizer; from tissue; host or cells: rat testis (microsomal fraction)
T1 sequence (P11715 1-507): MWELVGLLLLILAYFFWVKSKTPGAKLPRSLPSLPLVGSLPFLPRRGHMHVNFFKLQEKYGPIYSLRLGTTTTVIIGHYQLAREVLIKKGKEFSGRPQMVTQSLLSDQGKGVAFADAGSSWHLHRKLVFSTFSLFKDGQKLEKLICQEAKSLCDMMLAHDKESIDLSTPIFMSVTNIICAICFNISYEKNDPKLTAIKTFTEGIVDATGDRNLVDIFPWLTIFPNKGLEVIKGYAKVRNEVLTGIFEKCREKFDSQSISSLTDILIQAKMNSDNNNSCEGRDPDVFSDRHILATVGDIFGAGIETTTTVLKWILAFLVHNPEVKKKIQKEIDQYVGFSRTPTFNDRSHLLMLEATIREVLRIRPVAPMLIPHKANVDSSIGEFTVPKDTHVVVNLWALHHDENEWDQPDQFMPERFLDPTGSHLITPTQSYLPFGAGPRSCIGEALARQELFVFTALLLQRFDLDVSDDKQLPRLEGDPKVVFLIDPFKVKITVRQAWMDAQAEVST
Assay type: biochemical
Procedure: CYP17 Inhibition Assay in Rat Testicular Microsomes (Rat CYP17) or Yeast Microsome Overexpressing Human CYP17
A. Materials • 1. NADPH (Sigma): A working stock was prepared by adding 25 μL of 6.5 mM NADPH in each tube. The final concentration of NADPH used in the assay was 325 μM. • 2. Potassium Phosphate Buffer: One molar (1M) solutions of K2HPO4 and KH2PO4 were prepared. Eight mL of the 1 M KH2PO4 and 1.98 mL of the 1 M K2HPO4 were combined and the pH was adjusted to 7.4. • 3. ^3H3-17α-hydroxypregnenolone (American Radiolabeled Chemicals, Inc., stock 1 μCi/μL): A 1:1 dilution of ^3H3-17α-hydroxypregnenolone in ethanol was prepared by combining 100 μL ^3H3-17α-hydroxypregnenolone+100 μL ethanol for one complete 96 well plate. For the reaction, 2 μL of the diluted ^3H3-17α-hydroxypregnenolone was added in each tube, i.e., 1 μCi/reaction. • 4. Microsome Isolation Buffer: The microsome isolation buffer was prepared by combining 250 mM Sucrose, 5 mM EDTA, 10 mM Tris HCl, 4 mM DTT, and adjusting to pH 7.4. • 5. TEG Buffer: The TEG buffer was prepared by combining 50 mM Tris HCl, 1 mM EDTA, and 20% Glycerol. • 6. Rat Testicular Microsomes: Rat testis tissue was collected and disrupted with 30 strokes of a glass homogenizer on ice with 250 μL of microsome isolation buffer, followed by centrifugation at 10,000 g for 10 minutes at 4° C. The supernatant was collected and centrifuged at 100,000 g for 45 minutes at 4° C. The pellet was dissolved in TEG Buffer and the protein was quantified. The homogenized microsome samples were then frozen at −80° C. • 7. Yeast Microsomes which overexpress the human CYP17 enzyme were obtained from Premas Biotech, India.
Potassium phosphate buffer (470 μL) was prepared as described above and was added to each well of a deep well plate. The test compound was diluted using a TECAN liquid handler and 5 μL of diluted compound was transferred to each well (96 deep well/1 mL). A solution (25 μL) of 6.5 mM NADPH was added (final concentration of 325 µM in the assay). ^3H3-17α-hydroxypregnenolone (2 μL of the working stock) was added to each tube. The plates were then pre-incubated for 15 minutes at 37° C. Following the pre-incubation, either 5 μL rat testicular microsomes (150-160 μg) or 5 μL of yeast microsomes expressing human CYP17 (1.7 pmol), was added. Incubation was at 37° C. for 60 minutes in the presence of oxygen. The plates were then placed in ice and chloroform (500 μL) was added, mixed well and incubated at 4° C. for 20 minutes. The plates were then centrifuged at 1000 rpm for 15 minutes at 4° C.
A portion (300 μL) of the aqueous solution was collected and mixed with a 5% aqueous suspension of activated charcoal (300 μL). The plates were then incubated at 4° C. for 30 minutes, after which the plates were centrifuged at 1000 rpm for 15 minutes at 4° C. From this, 125 μL of the aqueous solution was collected and plated into a 96 well plate. Microscint™ 40 [125 μL, Perkin-Elmer; containing a mixture of a polymer based on alkylphenolethoxylate (20-40%), diethanolamine-phosphoric acid ester ammonium salt (10-20%), sodium dioctyl sulphosuccinate (2.5-10%), triethyl phosphate (2.5-10%), 3,6-dimethyl-4-octyne-3,6-diol (≦2.5%), a polymer based on nonylphenolethoxylate (≦2.5%), diisopropyl naphthalene isomers (40-60%), 2,5-diphenyloxazole (≦2.5%), and 9,10-dimethylanthracene] was added and mixed well. After 30 minutes of incubation, the samples were analyzed with a MicroBeta® Trilux microplate liquid scintillation counter and luminometer (Perkin-Elmer).
`CCC(c1ccc(-c2cccc(C#N)c2)cn1)n1ccnc1` (stereo not drawn) [Example 53, 3-[6-(1-Imidazol-1-yl-propyl)-pyridin-3-yl]-benzonitrile] gave an IC50 of less than 50 nM.
For `CCC(c1ccc(-c2ccc(CO)cc2)cn1)n1ccnc1` (stereo not drawn) [Example 41, {4-[6-(1-Imidazol-1-yl-propyl)-pyridin-3-yl]-phenyl}-methanol], the IC50 was less than 50 nM.
Work on `CC(c1cnc(-c2ccc(=O)[nH]c2)s1)n1ccnc1` (stereo not drawn) [Example 63, 5-[5-(1-Imidazol-1-yl-ethyl)-thiazol-2-yl]-1H-pyridin-2-one] yielded an IC50 of 201 to 10000 nM.
For `CCC(c1ccc(-c2ccc(O)cc2)s1)n1ccnc1` (stereo not drawn) [Example 4, 4-(5-(1-(1H-imidazol-1-yl)propyl)thiophen-2-yl)phenol], the IC50 was less than 50 nM.
For `CC(C)CC(c1ccc(-c2ccc(O)cc2)s1)n1ccnc1` (stereo not drawn) [Example 23, 4-(5-(1-(1H-imidazol-1-yl)-3-methylbutyl)-thiophen-2-yl)phenol], the IC50 was less than 50 nM.
`CC(C)(c1ccc(-c2ccc(O)cc2)s1)n1ccnc1` [Example 26, 4-[5-(1-Imidazol-1-yl-1-methyl-ethyl)-thiophen-2-yl]-phenol] was tested, and the IC50 was less than 50 nM.
`CCC(c1cnc(-c2ccc(OC)nc2)s1)n1ccnc1` (stereo not drawn) [Example 51, 5-[5-(1-Imidazol-1-yl-propyl)-thiazol-2-yl]-2-methoxy-pyridine] showed an IC50 of less than 50 nM.
In the case of `COc1ccc(-c2ccc(C(C)n3ccnc3)nc2)cc1` (stereo not drawn) [Example 15, 2-(1-(1H-imidazol-1-yl)ethyl)-5-(4-methoxyphenyl)pyridine], the IC50 is reported as 50 to 200 nM.
With `CCC(c1ccc(-c2ccc(COCOC)cc2)cn1)n1ccnc1` (stereo not drawn) [Example 11, 2-(1-(1H-imidazol-1-yl)propyl)-5-(4-((methoxymethoxy)methyl)-phenyl)pyridine] the IC50 was 50 to 200 nM.
Work on `CCC(c1ccc(-c2cccc(F)c2)cn1)n1ccnc1` (stereo not drawn) [Example 45, 5-(3-Fluoro-phenyl)-2-(1-imidazol-1-yl-propyl)-pyridine] yielded an IC50 of less than 50 nM.
`CC(c1ccc(-c2ccc(=O)n(C(C)C)c2)s1)n1ccnc1` (stereo not drawn) [Example 21, 5-(5-(1-(1H-imidazol-1-yl)ethyl)thiophen-2-yl)-1-isopropylpyridin-2(1H)-one] showed an IC50 of less than 50 nM.
`CC(c1ccc(-c2ccccc2F)cn1)n1ccnc1` (stereo not drawn) [Example 40, 5-(2-Fluoro-phenyl)-2-(1-imidazol-1-yl-ethyl)-pyridine] gave an IC50 of less than 50 nM.
`COc1ccc(-c2cccc(C(C)n3ccnc3)n2)cc1` (stereo not drawn) [Example 42, 2-(1-Imidazol-1-yl-ethyl)-6-(4-methoxy-phenyl)-pyridine] showed an IC50 of less than 50 nM.
`COc1ccc(-c2ncc(C(C)n3ccnc3)s2)cn1` (stereo not drawn) [Example 58, 5-[5-(1-Imidazol-1-yl-ethyl)-thiazol-2-yl]-2-methoxy-pyridine] gave an IC50 of 50 to 200 nM.
With `CCC(c1ccc(-c2ccccc2C#N)cn1)n1ccnc1` (stereo not drawn) [Example 18, 2-(6-(1-(1H-imidazol-1-yl)propyl)pyridin-3-yl)benzonitrile] the IC50 was less than 50 nM.
Molecule `CC(c1ccc(-c2ccc(F)cc2)cn1)n1ccnc1` (stereo not drawn) [Example 34, 5-(4-Fluoro-phenyl)-2-(1-imidazol-1-yl-ethyl)-pyridine] has an IC50 of less than 50 nM.
For `CCC(c1cnc(-c2ccc(NC(=O)OC(C)(C)C)cc2)s1)n1ccnc1` (stereo not drawn) [Example 31, {4-[5-(1-Imidazol-1-yl-propyl)-thiazol-2-yl]-phenyl}-carbamic acid tert-butyl ester], the IC50 was less than 50 nM.
For `CC(c1ccc(-c2ccc(N)cc2)cn1)n1ccnc1` (stereo not drawn) [Example 14, 4-(6-(1-(1H-imidazol-1-yl)ethyl)pyridin-3-yl)aniline], the IC50 was 50 to 200 nM.
`CCC(c1cnc(-c2cccc(F)c2)s1)n1ccnc1` (stereo not drawn) [Example 1, 5-(1-(1H-imidazol-1-yl)propyl)-2-(3-fluorophenyl)thiazole] gave an IC50 of less than 50 nM.
For `CCC(c1nnc(-c2ccc(F)cc2)s1)n1ccnc1` (stereo not drawn) [Example 19, 2-(1-(1H-imidazol-1-yl)propyl)-5-(4-fluorophenyl)-1,3,4-thiadiazole], the IC50 was less than 50 nM.
`CCC(c1cnc(-c2ccc(F)cc2F)s1)n1ccnc1` (stereo not drawn) [Example 32, 2-(2,4-Difluoro-phenyl)-5-(1-imidazol-1-yl-propyl)-thiazole] gave an IC50 of less than 50 nM.
`COc1ccc(-c2ccc(C(C)n3ccnc3)s2)cn1` (stereo not drawn) [Example 25, 5-[5-(1-Imidazol-1-yl-ethyl)-thiophen-2-yl]-2-methoxy-pyridine] was tested, and the IC50 was less than 50 nM.
`CCC(c1cnc(-c2ccc(=O)[nH]c2)s1)n1ccnc1` (stereo not drawn) [Example 59, 5-[5-(1-Imidazol-1-yl-propyl)-thiazol-2-yl]-1H-pyridin-2-one] showed an IC50 of 50 to 200 nM.
`CCC(c1ccc(-c2ccc(NC(C)=O)cc2)cn1)n1ccnc1` (stereo not drawn) [Example 43, N-{4-[6-(1-Imidazol-1-yl-propyl)-pyridin-3-yl]-phenyl}-acetamide] was tested, and the IC50 was less than 50 nM.
In the case of `CCC(c1ccc(-c2ccc(C(=O)O)cc2)cn1)n1ccnc1` (stereo not drawn) [Example 6, 4-(6-(1-(1H-imidazol-1-yl)propyl)pyridin-3-yl)benzoic acid], the IC50 is reported as 201 to 10000 nM.
In the case of `CCOC(=O)c1ccc(-c2ccc(C(CC)n3ccnc3)nc2)cc1` (stereo not drawn) [Example 5, Ethyl 4-(6-(1-(1H-imidazol-1-yl)propyl)pyridin-3-yl)benzoate], the IC50 is reported as 50 to 200 nM.
`CCC(c1cnc(-c2cn[nH]c2)s1)n1ccnc1` (stereo not drawn) [Example 44, 5-(1-Imidazol-1-yl-propyl)-2-(1H-pyrazol-4-yl)-thiazole] gave an IC50 of less than 50 nM.
Work on `COc1ccc(-c2ccc(C(CC(C)C)n3ccnc3)s2)cc1` (stereo not drawn) [Example 39, 1-{1-[5-(4-Methoxy-phenyl)-thiophen-2-yl]-3-methyl-butyl}-1H-imidazole] yielded an IC50 of less than 50 nM.
`COc1ccc(-c2ccc(C(C)n3ccnc3)s2)cc1` (stereo not drawn) [Example 36, 1-{1-[5-(4-Methoxy-phenyl)-thiophen-2-yl]-ethyl}-1H-imidazole] gave an IC50 of less than 50 nM.
`CC(c1ccc(-c2ccc(F)cc2)cn1)n1ccnc1` (stereo not drawn) [Example 12, 2-(1-(1H-imidazol-1-yl)ethyl)-5-(4-fluorophenyl)pyridine] showed an IC50 of less than 50 nM.
Molecule `CCC(c1ccc(-c2ccc(F)cc2)cn1)n1ccnc1` (stereo not drawn) [Example 29, 5-(4-Fluoro-phenyl)-2-(1-imidazol-1-yl-propyl)-pyridine] has an IC50 of less than 50 nM.
`CC(c1ccc(-c2ccc(O)cc2)cn1)n1ccnc1` (stereo not drawn) [Example 16, 4-(6-(1-(1H-imidazol-1-yl)ethyl)pyridin-3-yl)phenol] was tested, and the IC50 was less than 50 nM.
Molecule `CCC(c1ccc(-c2ccc(OC)cc2)s1)n1ccnc1` (stereo not drawn) [Example 3, 1-(1-(5-(4-methoxyphenyl)thiophen-2-yl)propyl)-1H-imidazole] has an IC50 of less than 50 nM.
`CC(c1ccc(-c2ccoc2)cn1)n1ccnc1` (stereo not drawn) [Example 13, 2-(1-(1H-imidazol-1-yl)ethyl)-5-(furan-3-yl)pyridine] showed an IC50 of less than 50 nM.
For `CCC(c1ccc(-c2ccc(C(=O)NC)cc2)cn1)n1ccnc1` (stereo not drawn) [Example 9, 4-(6-(1-(1H-imidazol-1-yl)propyl)pyridin-3-yl)-N-methylbenzamide], the IC50 was less than 50 nM.
`CC(=O)Nc1ccc(-c2ccc(C(C)n3ccnc3)nc2)cc1` (stereo not drawn) [Example 64, N-{4-[6-(1-Imidazol-1-yl-ethyl)-pyridin-3-yl]-phenyl}-acetamide] was tested, and the IC50 was 201 to 10000 nM.
